Data published in patent US20230404969A1, “COMPOSITIONS AND METHOD FOR EFFECTIVE MANAGEMENT OF PERITONITIS” (priority 2022, published 2023).

Assays:
TNF-α = experiment: Extracellular in vivo TNF-α estimation in serum from treated mice after LPS injection (ELISA); details: 1 mg/kg p.o for 6 days, serum 90 mins after LPS injection, ↑ upregulation
Experimental: (§1) BALM male mice aged 6-8 weeks were maintained at 22±2° C. under 12/12 h light dark cycle. Mice received oral treatment of test drugs at graded doses (w/v) for 6 days, followed by intravenous injection of 1 mg/kg (Brieva et al. Immunoferon, a glycoconjugate of natural origin, inhibits LPS-induced TNF-α production and inflammatory responses. International Immunopharmacology (2001) 1, 1979-1987). Six mice were employed in each group and experiments were performed in triplicates. Blood was collected from retro-orbital plexus of the experimental animals and serum was separated. TNF-α, IL-1β production was evaluated by a commercial ELISA kit in serum from treated mice, 90 mins after LPS injection.

IL-1β = experiment: Extracellular in vivo IL-1β estimation in serum from treated mice after LPS injection (ELISA); details: 1 mg/kg p.o for 6 days, serum 90 mins after LPS injection, ↑ upregulation
Experimental: as §1

[1] = system: polymorphonuclear leukocytes, macrophages, lymphocytes; experiment: Zymosan A induced peritonitis, acute study: intraperitoneal cellular influx; format: in vivo, BALB/c male mice; details: 2 mg/kg p.o (of 0.5, 1, 2, 4 mg/kg); 4, 12, 24 and 48 hrs after Zymosan A i.p.
Experimental: Peritoneal inflammation was induced according to Doherty et al. in BALB/c male mice aged 6-8 weeks. Zymosan A (Sigma Chemical) was prepared freshly (2 mg/ml) in sterile, 0.9% w/v saline, and 0.5 ml was injected i.p. Zymosan A is a cell wall component of fungus, caused proliferative peritonitis with severe accumulation of inflammatory cells. At the selected time points 4, 12, 24 and 48 hrs, the peritoneal cavity was lavaged with 1.5 ml saline, and after a 30-s gentle manual massage, 0.5 ml exudate was retrieved, centrifuged at 3000 g for 3 min. 0.5 ml exudate was collected and used freshly for cell counts.

IL-10 = experiment: Cytometric Bead Array of peritoneal fluid, chronic zymosan peritonitis: IL-10; format: in vivo, mouse; details: 2 mg/kg, vs Zymosan control
Experimental: Peritoneal inflammation was induced by Zymosan A (Sigma Chemical) (Masashi et al. Zymosan, but Not Lipopolysaccharide, Triggers Severe and Progressive Peritoneal Injury Accompanied by complement Activation in a Rat Peritonitis Model) was prepared freshly in sterile, 0.9% w/v saline, and 0.5 ml was injected i.p. from day 0 to Day 5. The lymphocyte population in the peripheral blood was determined with a flow cytometer. Cells were phenotyped by flow cytometry with the following primary antibodies: CD4 (FITC) and CD8 (PE). Cells were gated broadly on all live lymphocyte cells, with only debris and multiple cell clusters being excluded. Analysis of mean fluorescence intensity was done and percentage cell population was evaluated. […]
The Cytometric Bead Array (Mouse Inflammation kit) was used to study cytokines in peritoneal fluid. […] Briefly, a mixture of 6 capture bead populations (50 μl) with distinct fluorescence intensities (detected in FL3) coated with antibodies specific for the above cytokines was mixed with each sample/standard (50 μl). […] Following acquisition of data by two colour cytometric analysis, the sample results were analysed using CBA software (BD Biosciences). […] Individual cytokine concentration ratios were indicated by their fluorescent intensities and was determined by interpolation from the corresponding standard curve.

[2] = system: Lactobacillus acidophilus (Gram positive); experiment: Bacterial translocation from the gut into organs: L. acidophilus; format: in vivo; details: Withanone 2 mg/kg; positive/6 mice
Experimental: (§2) Peritoneal inflammation was induced by Zymosan A (Sigma Chemical) (Masashi et al. Zymosan, but Not Lipopolysaccharide, Triggers Severe and Progressive Peritoneal Injury Accompanied by complement Activation in a Rat Peritonitis Model) was prepared freshly in sterile, 0.9% w/v saline, and 0.5 ml was injected i.p. from day 0 to Day 5. The lymphocyte population in the peripheral blood was determined with a flow cytometer. Cells were phenotyped by flow cytometry with the following primary antibodies: CD4 (FITC) and CD8 (PE). Cells were gated broadly on all live lymphocyte cells, with only debris and multiple cell clusters being excluded. Analysis of mean fluorescence intensity was done and percentage cell population was evaluated. The test drugs were administered for 30 days after the induction of peritonitis. On 36th day the peritoneal cavity was lavaged with 1.5 ml saline, and after a 30-s gentle manual massage, 0.5 ml exudate was retrieved, centrifuged at 3000 g for 3 min, and frozen at […] prior to cytokine and chemotactic-factor assessment.
(§3) Intestine serves as a barrier in preventing gut bacteria and/or endotoxin from spreading to organs and tissues. It is also known that bacterial translocation occurs in critically ill or immunocompromised patients, and the physical disruption of mucosal barrier in vivo rodent models seem to be a key factor Tor translocation (Deitch et al. Effect of hemorrhagic shock on bacterial translocation, intestinal morphology, and intestinal permeability in conventional and antibiotic-decontaminated rats; Critical Care Medicine; 1990 18(5)). Bacterial translocation from the gut into the peritoneal cavity and organs was analyzed. The mesenteric lymph nodes, liver, and spleen of mice, study group of 30, were removed using sterile instruments. The organs were then homogenized in 1 ml of sterile cooked meat broth and 50 μl of organ homogenate was spread on blood agar plates to detect aerobic bacteria and Eosin Methylene blue agar plates to detect specially for E. coli. These plates were then incubated at 37° C. for 2 days. […]

[3] = system: Enterococcus faecalis (Gram positive); experiment: Bacterial translocation from the gut into organs: E. faecalis; format: in vivo; details: Withanone 2 mg/kg; positive/6 mice
Experimental: as §2, §3

[4] = system: Klebsiella pneumoniae (Gram-negative); experiment: Bacterial translocation from the gut into organs: K. pneumoniae; format: in vivo; details: Withanone 2 mg/kg; positive/6 mice
Experimental: as §2, §3

Myeloperoxidase (MPO) = experiment: Myeloperoxidase in peritoneal exudate (ELISA), chronic zymosan peritonitis; format: in vivo, mouse; details: 2 mg/kg, day 36
Experimental: as §2
Circulating toxins can activate neutrophils or stimulate monocytes to release mediators contributing to the development of endotoxic shock. […] The protein concentrations were carried out by means of colorimetric measurement at 450 nm on an ELISA plate reader by interpolation from a standard curve. […]

For CC1=C(C)C(=O)O[C@@H]([C@@H](C)[C@@]2(O)CC[C@H]3[C@@H]4[C@@H]5O[C@@H]5[C@@]5(O)CC=CC(=O)[C@]5(C)[C@H]4CC[C@@]32C)C1 [Withanone], the “Percentage TNF-α inhibition compared to LPS control” value (TNF-α) was 37.05%, the “Percentage IL-1β inhibition compared to LPS control” value (IL-1β) was 24.5% and the “Inhibition of intraperitoneal cellular influx” value [1] was “maximum effect in inhibiting cellular influx”. The “Inhibition of IL-10” value (IL-10) was 52%, the “Bacterial translocation, Liver, L. acidophilus” value [2] was 1/6 and the “Bacterial translocation, Mesenteric Lymph Nodes, L. acidophilus” value [2] was 1/6. For the same compound, the “Bacterial translocation, Spleen, L. acidophilus” value [2] was 1/6, the “Bacterial translocation, Liver, E. faecalis” value [3] was 1/6 and the “Bacterial translocation, Mesenteric Lymph Nodes, E. faecalis” value [3] was 2/6. The “Bacterial translocation, Spleen, E. faecalis” value [3] was 0/6, the “Bacterial translocation, Liver, k. pneumonia” value [4] was 0/6 and the “Bacterial translocation, Mesenteric Lymph Nodes, k. pneumonia” value [4] was 0/6. For the same compound, the “Bacterial translocation, Spleen, k. pneumonia” value [4] was 1/6 and the “Decrease of expression levels of MPO compared to the Zymosan control” value (Myeloperoxidase (MPO)) was “at least 50%”.
